Results taken from ChEMBL document CHEMBL3988442, “University of Dundee, Small-Polar-MMV Screening Library” (2021).

Legend:
ClpP1P2 = ClpP1P2 (Mycobacterium tuberculosis (strain ATCC 25618 / H37Rv), UniProt P9WPC3+P9WPC5); assay: in vitro assay to detect presence of AMC directly proportional to the activity of ClpP1P2. GHDDI collaboration.; assay type: functional
[1] = microbe, parasite or virus in culture; settings: Mycobacterium tuberculosis, 96 h, read-out: pIC50 (converted)
[2] = microbe, parasite or virus in culture; settings: Mycobacterium tuberculosis, 72 h, read-out: pIC50 (converted)
Plasmodium falciparum = assay: Calibr Malaria Delayed Death Assay SOP; assay type: functional, organism-based; settings: for IC50: Plasmodium falciparum

Chain of ClpP1P2 (P9WPC5 whole entry): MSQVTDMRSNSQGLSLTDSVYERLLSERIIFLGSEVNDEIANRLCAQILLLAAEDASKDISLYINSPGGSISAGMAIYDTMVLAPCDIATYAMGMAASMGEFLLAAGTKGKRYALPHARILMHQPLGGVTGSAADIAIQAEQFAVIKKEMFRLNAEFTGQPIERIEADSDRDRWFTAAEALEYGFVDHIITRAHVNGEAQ
Chain of ClpP1P2 (P9WPC3 whole entry): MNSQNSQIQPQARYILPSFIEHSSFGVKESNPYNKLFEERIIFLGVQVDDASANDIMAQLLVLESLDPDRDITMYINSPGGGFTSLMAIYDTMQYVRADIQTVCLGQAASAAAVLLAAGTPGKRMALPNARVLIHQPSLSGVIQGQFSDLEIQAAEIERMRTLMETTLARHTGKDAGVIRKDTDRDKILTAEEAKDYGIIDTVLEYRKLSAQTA

With `CN(C)c1cc(C(=O)N2CCN(c3cc(C#N)ccn3)CC2)ccn1` the IC50 (ClpP1P2) was over 100 µM.

Work on `CN(C)c1cc(CNC(=O)Nc2ccc(N3CCCC3)nc2)ccn1` yielded an IC50 (ClpP1P2) of over 100 µM.

Compound `Cc1nc(-c2cc(Cl)cc3c2OC(CN)C3)c[nH]1` (stereo not drawn) has an IC50 [1] of over 50.1 µM, an IC50 [2] of 13.6 µM and a pIC50 (Plasmodium falciparum) of 6.207. It also gave an IC50 (Plasmodium falciparum) of 0.655 µM.

In the case of `CC(C)n1cnc(-c2nc(C(=O)N3CCCC3)c3ccccn23)c1`, the IC50 (ClpP1P2) is reported as over 100 µM.

With `COc1ccccc1Cc1cncc(N2CC(C(=O)O)C2)n1` the IC50 (ClpP1P2) was over 100 µM.

`Cc1noc2ncc(C(=O)NCC3CCS(=O)(=O)C3)cc12` (stereo not drawn) showed an IC50 (ClpP1P2) of over 100 µM.

Compound `N#Cc1ccccc1N1CCCN(C(=O)CCc2ccsc2)CC1` has an IC50 (ClpP1P2) of over 100 µM.

`CCN1CCCC1CNCc1cc2cc3c(cc2[nH]c1=O)OCCO3` (stereo not drawn) gave an IC50 (ClpP1P2) of over 100 µM.

With `c1cncc(-c2ccc3c(c2)CCC32CCNCC2)c1` the IC50 [1] was 40.9 µM, the IC50 [2] was 46.2 µM and the pIC50 (Plasmodium falciparum) was 5.939. It also gave an IC50 (Plasmodium falciparum) of 1.28 µM.

`Cc1nc(C)n(CC2CCCN2CCC(=O)N2CCCCC2)n1` (stereo not drawn) showed an IC50 (ClpP1P2) of over 100 µM.

With `CCCn1cc(-c2cc(-c3cc(CC)n[nH]3)c(C#N)c(N)n2)c(C)n1` the IC50 (ClpP1P2) was over 100 µM.

Compound `O=C(c1cncc(N2CCC(O)(CO)CC2)n1)N1CCCC1` has an IC50 (ClpP1P2) of over 100 µM.

Compound `COc1ccc(CNC(=O)Nc2cccnc2N2CCCC2)cc1OC` has an IC50 (ClpP1P2) of over 100 µM.

Work on `Cc1c[nH]nc1C1CCCN1Cc1ncc[nH]1` (stereo not drawn) yielded an IC50 (ClpP1P2) of over 100 µM.

Compound `CCCn1ccnc1CN1CCCC1c1ccccn1` (stereo not drawn) has an IC50 [1] of over 50.1 µM, an IC50 [2] of over 50.1 µM and a pIC50 (Plasmodium falciparum) of 6.456. For the same compound, the IC50 (Plasmodium falciparum) was 0.395 µM.

Compound `CNC(=O)c1cc2c(nc1NCC1CC1)CCN(c1ccncn1)CC2` has an IC50 (ClpP1P2) of over 100 µM.

Compound `COc1cccc(OCCNS(=O)(=O)Cc2ccccc2)c1` has an IC50 (ClpP1P2) of over 100 µM.

With `O=C(c1c2c(NCC3CC3)ncnc2n2ccccc12)N1CCOCC1` the IC50 (ClpP1P2) was over 100 µM.

In the case of `Cc1nc(-c2cc(Cl)c3c(c2)CC(CN)O3)c[nH]1` (stereo not drawn), the IC50 [1] is reported as 8.33 µM, the IC50 [2] is reported as 2.58 µM and the pIC50 (Plasmodium falciparum) is reported as 5.986. For the same compound, the IC50 (Plasmodium falciparum) was 1.39 µM.

Compound `O=C(CCN1CCCC(CO)(CC2CC2)C1)NCc1cccc(Cl)c1` (stereo not drawn) has an IC50 [1] of over 50.1 µM, an IC50 [2] of over 50.1 µM and a pIC50 (Plasmodium falciparum) of 5.764. The IC50 (Plasmodium falciparum) was 1.32 µM.

In the case of `Cl.Cl.Clc1cccc(C[C@@H]2NCCC[C@@H]2Nc2ccccc2)c1`, the IC50 [1] is reported as 16 µM, the IC50 [2] is reported as 12 µM and the pIC50 (Plasmodium falciparum) is reported as 6.034. The IC50 (Plasmodium falciparum) was 0.789 µM.

`CCc1[nH]c2c(CNc3cc(C)nc(NC)n3)cc(C)cc2c1C` showed an IC50 [1] of 40.3 µM, an IC50 [2] of 35.7 µM and a pIC50 (Plasmodium falciparum) of 6.096. For the same compound, the IC50 (Plasmodium falciparum) was 0.75 µM.

For `COc1ccc2[nH]c(CNc3cc(C4CCNCC4)nc(C)n3)cc2c1`, the IC50 [1] was 12.4 µM, the IC50 [2] was 14.3 µM and the pIC50 (Plasmodium falciparum) was 5.758. For the same compound, the IC50 (Plasmodium falciparum) was 1.83 µM.

Compound `CCc1cnc(N)nc1NC(C)c1ccc(C)c(C)c1` (stereo not drawn) has an IC50 [1] of 44.1 µM, an IC50 [2] of 23.8 µM and a pIC50 (Plasmodium falciparum) of 6.042. It also gave an IC50 (Plasmodium falciparum) of 0.893 µM.

For `c1ccc(C2CN(C3CC3)CC3(CCN(Cc4cscn4)CC3)C2)cc1` (stereo not drawn), the IC50 [1] was 25.7 µM, the IC50 [2] was 26.1 µM and the pIC50 (Plasmodium falciparum) was 6.129. For the same compound, the IC50 (Plasmodium falciparum) was 0.969 µM.

Work on `CS(=O)(=O)CCCNC1(c2cccc(Cl)c2)CCCC1` yielded an IC50 [1] of over 50.1 µM, an IC50 [2] of over 50.1 µM and a pIC50 (Plasmodium falciparum) of 6.268. It also gave an IC50 (Plasmodium falciparum) of 0.87 µM.

In the case of `OC1(CN2CCC(Oc3cccc(C(F)(F)F)c3)CC2)CCNC1` (stereo not drawn), the IC50 [2] is reported as over 50.1 µM, the pIC50 (Plasmodium falciparum) is reported as 6.152 and the IC50 (Plasmodium falciparum) is reported as 0.69 µM.

Compound `CCOc1ccc(CN2CCCC(c3cc4ncccc4[nH]3)C2)cc1` (stereo not drawn) has an IC50 [1] of 24.8 µM, an IC50 [2] of 33.6 µM and a pIC50 (Plasmodium falciparum) of 6.15. The IC50 (Plasmodium falciparum) was 0.842 µM.

Work on `Oc1ccc(Cl)cc1CNCc1cccc(C(F)(F)F)c1` yielded an IC50 [1] of 29.1 µM, an IC50 [2] of 43.2 µM and a pIC50 (Plasmodium falciparum) of 6.177. For the same compound, the IC50 (Plasmodium falciparum) was 0.653 µM.

Work on `Cc1ccc(CNCc2cccc3cccnc23)c(OC2CCOC2)c1` (stereo not drawn) yielded an IC50 [1] of over 50.1 µM, an IC50 [2] of over 50.1 µM and a pIC50 (Plasmodium falciparum) of 6.31. The IC50 (Plasmodium falciparum) was 0.619 µM.

In the case of `CC[C@H]1CN2CC[C@H]1C[C@@H]2CNC(=O)Nc1cc(OC)cc(OC)c1`, the IC50 [1] is reported as over 50.1 µM, the IC50 [2] is reported as over 50.1 µM and the pIC50 (Plasmodium falciparum) is reported as 6.272. The IC50 (Plasmodium falciparum) was 0.762 µM.

Work on `COCCN(C)Cc1cc(Cl)ccc1OCC(O)CN1CCCCCC1` (stereo not drawn) yielded an IC50 [1] of 12.4 µM, an IC50 [2] of over 50.1 µM and a pIC50 (Plasmodium falciparum) of 6.019. The IC50 (Plasmodium falciparum) was 0.953 µM.

Work on `CC(Nc1nc(-c2ccccc2)nc2c1CCNCC2)c1cccnc1` (stereo not drawn) yielded an IC50 [1] of 28 µM, an IC50 [2] of 27.6 µM and a pIC50 (Plasmodium falciparum) of 5.884. It also gave an IC50 (Plasmodium falciparum) of 1.46 µM.

`CC1CCCCN1C(=O)c1coc(COc2cccc3cnccc23)n1` (stereo not drawn) showed an IC50 [1] of 24.4 µM, an IC50 [2] of 44 µM and a pIC50 (Plasmodium falciparum) of 6.214. It also gave an IC50 (Plasmodium falciparum) of 0.616 µM.

Compound `CCOc1cccc(CN2CCCC(Nc3ccc(F)cc3)C2)c1O` (stereo not drawn) has an IC50 [1] of 46.1 µM, a pIC50 (Plasmodium falciparum) of 6.217 and an IC50 (Plasmodium falciparum) of 0.577 µM.

For `c1ccc(-c2nc3c(c(NCc4n[nH]c5c4CCC5)n2)CCNC3)cc1`, the IC50 [1] was 46.1 µM, the IC50 [2] was 25.7 µM and the pIC50 (Plasmodium falciparum) was 6.219. For the same compound, the IC50 (Plasmodium falciparum) was 0.902 µM.

Compound `Cn1ccnc1CN(Cc1ccccn1)Cc1ccccc1Cl.O=C(O)CC(O)(CC(=O)O)C(=O)O` has an IC50 [2] of 45.5 µM, a pIC50 (Plasmodium falciparum) of 6.114 and an IC50 (Plasmodium falciparum) of 0.725 µM.

Work on `CC[C@H]1CN2CC[C@H]1C[C@@H]2CNCc1ccc(OC(F)(F)F)cc1` yielded an IC50 [1] of 19.8 µM, an IC50 [2] of 31.9 µM and a pIC50 (Plasmodium falciparum) of 6.073. The IC50 (Plasmodium falciparum) was 0.806 µM.

`Cc1cnn(CCCNCc2csc(COc3ccccc3)n2)c1` gave an IC50 [1] of 11.4 µM, an IC50 [2] of 27.8 µM and a pIC50 (Plasmodium falciparum) of 6.021. The IC50 (Plasmodium falciparum) was 0.828 µM.

For `O=C(CCN1CCCC1c1cccc2c1OCCO2)N1CCCCC1` (stereo not drawn), the IC50 [1] was over 50.1 µM, the IC50 [2] was 25.2 µM and the pIC50 (Plasmodium falciparum) was 5.987. It also gave an IC50 (Plasmodium falciparum) of 0.845 µM.

Work on `Cc1cc(Cc2cccc(C(F)(F)F)c2)cc(C2CCCNC2)n1` (stereo not drawn) yielded an IC50 [1] of 37.9 µM, an IC50 [2] of 25.3 µM and a pIC50 (Plasmodium falciparum) of 6.047. The IC50 (Plasmodium falciparum) was 1.12 µM.

In the case of `CCC[C@H]1CN(S(=O)(=O)c2ccc(-c3c(C)noc3C)s2)C[C@@H]1N`, the pIC50 (Plasmodium falciparum) is reported as 6.179 and the IC50 (Plasmodium falciparum) is reported as 0.798 µM.

Compound `CCC(C)(C)n1nnnc1C(c1cccs1)N1CCc2ccccc2C1` (stereo not drawn) has a pIC50 (Plasmodium falciparum) of 6.38 and an IC50 (Plasmodium falciparum) of 0.55 µM.

With `Cc1cccc(C2(NCCCS(C)(=O)=O)CCCC2)c1` the pIC50 (Plasmodium falciparum) was 6.254 and the IC50 (Plasmodium falciparum) was 0.659 µM.

`Cc1ccc(CN2CC[C@H]3[C@H](CC(Cn4cccn4)N3C)C2)s1.O=C(O)C(F)(F)F.O=C(O)C(F)(F)F.O=C(O)C(F)(F)F` (stereo partly drawn) gave a pIC50 (Plasmodium falciparum) of 6.142 and an IC50 (Plasmodium falciparum) of 0.814 µM.

Work on `COCCN1CCC2(CC1)CC(NCc1ccc(C)s1)c1ccccc12.O=C(O)C(F)(F)F.O=C(O)C(F)(F)F` (stereo not drawn) yielded a pIC50 (Plasmodium falciparum) of 6.267 and an IC50 (Plasmodium falciparum) of 0.561 µM.

Compound `Fc1cnc(N2CCCC3(CCN(Cc4ccsc4)C3)C2)nc1.O=C(O)C(F)(F)F.O=C(O)C(F)(F)F` (stereo not drawn) has a pIC50 (Plasmodium falciparum) of 6.217 and an IC50 (Plasmodium falciparum) of 0.664 µM.

`CC(C)NC(=O)C1(Cc2ccccc2-c2cccs2)CCNC1` (stereo not drawn) showed a pIC50 (Plasmodium falciparum) of 6.06 and an IC50 (Plasmodium falciparum) of 0.982 µM.

Work on `Cc1cccc(C)c1Nc1noc2c1CN(C(=O)c1c[nH]nc1C)CC2` yielded a pIC50 (Plasmodium falciparum) of 6.277 and an IC50 (Plasmodium falciparum) of 0.691 µM.

In the case of `c1ccc(Oc2nccc3occc23)c(CN2CCCCC2)c1`, the pIC50 (Plasmodium falciparum) is reported as 6.272 and the IC50 (Plasmodium falciparum) is reported as 0.735 µM.

In the case of `NCC1[C@H]2CN(Cc3cccc(Cl)c3)C[C@@H]12` (stereo partly drawn), the pIC50 (Plasmodium falciparum) is reported as 6.278 and the IC50 (Plasmodium falciparum) is reported as 0.553 µM.

In the case of `O=C(Cn1ccc2ccc(Br)cc21)NC[C@@H]1CCCN2CCCC[C@H]12`, the pIC50 (Plasmodium falciparum) is reported as 5.89 and the IC50 (Plasmodium falciparum) is reported as 1.28 µM.

With `CN1CCN(S(=O)(=O)c2ccc(Cl)c(Cl)c2)c2cnccc21` the pIC50 (Plasmodium falciparum) was 6.238 and the IC50 (Plasmodium falciparum) was 0.557 µM.

`CCC(CC)(CN)NC(C)c1ccccc1` (stereo not drawn) showed a pIC50 (Plasmodium falciparum) of 6.003 and an IC50 (Plasmodium falciparum) of 0.924 µM.

`Cc1ccc(OC2(C(=O)N(C)Cc3ccoc3)CCNCC2)cc1` gave a pIC50 (Plasmodium falciparum) of 6.094 and an IC50 (Plasmodium falciparum) of 0.701 µM.

`CC(NCCc1nccn1Cc1ccccc1)c1ccsc1` (stereo not drawn) showed a pIC50 (Plasmodium falciparum) of 6.094 and an IC50 (Plasmodium falciparum) of 1 µM.

In the case of `COc1cccc(CNCc2ccccc2Cl)c1O`, the pIC50 (Plasmodium falciparum) is reported as 6.206 and the IC50 (Plasmodium falciparum) is reported as 0.677 µM.
